Measured values reported in patent US4399124A, “Peptides having immunostimulating properties and pharmaceutical compositions containing them” (Institut Pasteur, priority 1979, dated 1983).
Ends that are not written are not given here.

Tests used:
Listeria monocytogenes = test: Multiplication of Listeria monocytogenes in the liver and the spleen of treated mice; type: in vivo; conditions: 0.5 ml of 10^-4 M i.v. 12 h before i.v. 0.3×10^5 Listeria; NaCl control 7 × 10^7 ± 2.4
Protocol: Mice in four batches of 4 animals were treated under the same conditions as previously. Twelve hours later, the mice were all inoculated, intravenously with 0.3×10^5 Listeria monocytogenes. The table below summarizes the results obtained. Again, the mice treated by the active principles show, in their spleen and especially in their liver, a number of Listeria up to 500 times smaller than in the liver of the control animals.

Salmonella typhimurium = test: Blood purging of Salmonella typhimurium in treated mice; type: in vivo; conditions: 0.5 ml of 10^-4 M i.v. 12 h before i.v. 2×10^7 Salmonella typhimurium; NaCl control 1.20 × 10^6 ± 0.28
Protocol: The increase in the bactericidal power of the macrophages always accompanying an increase in their ingestion capacities, it was sought to measure the latter with Salmonella typhimurium which necessitates for its phagocytosis, contrary to Listeria monocytogenes, opsonizing antibodies or a considerable stimulation of the hepatic macrophages. For this, the mice were treated under the same conditions as in the preceding experiment but were inoculated with 2×10^7 Salmonella typhimurium intravenously.

Lewis carcinoma (3LL) = test: Resistance of treated mice to Lewis carcinoma (3LL); type: in vivo, C57B1/6 mice; conditions: product injected 24 hours after inoculation; for Development of the tumor (difference in thickness between tumor paw and contralateral paw): 10^5 3LL cells into plantar pad, measured 9 days later, NaCl control 326 ± 34; for Number of pulmonary metastases: tumor paw amputated, autopsy 20 days after inoculation, NaCl control 5.3 ± 2.7
Protocol: This tumor is maintained in the laboratory as has been described (Fauve, R. M. and Hevin, B., Ann. Immunol. (Inst. Pasteur), 1977, 128C, 923-928). 3LL cells were cultured in Eagle medium supplemented with 15% of foetal calf serum and, after washing and resuspending in Eagle medium without serum, injected in the proportion of 10^5 cells in a volume of […] into the plantar pad of C57B1/6 mice. The difference between the thickness of the paw where the tumor is developed and the contralateral paw enables the development of the tumor to be evaluated.
In all cases, the products tested were injected 24 hours after inoculation of the malignant cells and, 9 days later, after having measured the thickness of the paws, the paw bearing the tumor was amputated and, 11 days later, namely 20 days after inoculation of the tumors, the animals were autopsied and the number of metastatic pumonary nodules counted. The following table summarizes the results obtained.

guinea pig ileon = conditions: cited from earlier work

Row | Substance | Number of Listeria monocytogenes in the spleen of mice 48 h after infection (Listeria monocytogenes) | Number of Salmonella typhimurium per ml of blood 2 h after infection (Salmonella typhimurium) | Development of the tumor (difference in thickness between tumor paw and contralateral paw) (Lewis carcinoma (3LL)) | Number of pulmonary metastases (Lewis carcinoma (3LL)) | Activity with respect to the guinea pig ileon (guinea pig ileon)
1 | HPPGF [H5, Histidyl→prolyl→prolyl→glycyl→phenylalanine] | 2.4 × 10^7 ± 1.3 | 7.15 × 10^4 ± 0.78 per ml of blood | 272 ± 41 | 0.5 ± 0.10 | –
2 | KPPGF [L5, Lysyl→prolyl→prolyl→glycyl→phenylalanine] | 1.8 × 10^7 ± 0.28 | 9.35 × 10^4 ± 7.9 per ml of blood | 295 ± 25 | 3.7 ± 2 | –
3 | RPPGF [1-5, Arginyl→prolyl→prolyl→glycyl→phenylalanine] | 3.1 × 10^7 ± 1 | 3.05 × 10^5 ± 1.6 per ml of blood | 284 ± 33 | 0.7 ± 0.11 | totally inactive
